Measured values reported in ChEMBL document CHEMBL1139653, “Synthesis and biological evaluation of novel hexahydro-pyrido[3',2':4,5]pyrrolo[1,2-a]pyrazines as potent and selective 5-HT(2C) receptor agonists” (Bioorg Med Chem Lett, 2006).

Assays:
[1] = biological target: T1, 5-hydroxytryptamine receptor 2A (Homo sapiens, UniProt P28223); assay: Displacement of [125I]DOI from human recombinant 5HT2A receptor expressed in CHO cells; format: cell-based
[2] = biological target: T2, 5-hydroxytryptamine receptor 2B (Homo sapiens, UniProt P41595); assay: Displacement of [3H]5HT from human recombinant 5HT2B receptor expressed in CHO cells; format: cell-based
T2 sequence (P41595 whole entry): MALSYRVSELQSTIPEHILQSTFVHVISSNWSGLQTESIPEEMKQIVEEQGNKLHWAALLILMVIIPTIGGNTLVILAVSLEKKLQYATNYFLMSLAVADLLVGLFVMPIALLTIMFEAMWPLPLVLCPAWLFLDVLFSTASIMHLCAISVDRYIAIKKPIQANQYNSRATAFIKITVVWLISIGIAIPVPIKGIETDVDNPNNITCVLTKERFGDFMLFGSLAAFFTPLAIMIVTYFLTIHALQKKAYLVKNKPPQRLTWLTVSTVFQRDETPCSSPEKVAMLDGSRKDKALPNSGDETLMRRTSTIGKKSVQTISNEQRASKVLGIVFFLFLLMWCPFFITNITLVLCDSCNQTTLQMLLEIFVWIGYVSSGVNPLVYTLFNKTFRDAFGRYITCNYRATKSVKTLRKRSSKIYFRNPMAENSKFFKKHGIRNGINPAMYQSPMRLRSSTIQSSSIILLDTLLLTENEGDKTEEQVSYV

Phospholipidosis [3] = assay: In vitro phospholipidosis in fibroblasts at 20uM; format: ADME
[4] = biological target: T3, 5-hydroxytryptamine receptor 2C (Homo sapiens, UniProt P28335); assay: Displacement of [3H]5HT from human recombinant 5HT2C receptor expressed in CHO cells; format: cell-based
T3 sequence (P28335 whole entry): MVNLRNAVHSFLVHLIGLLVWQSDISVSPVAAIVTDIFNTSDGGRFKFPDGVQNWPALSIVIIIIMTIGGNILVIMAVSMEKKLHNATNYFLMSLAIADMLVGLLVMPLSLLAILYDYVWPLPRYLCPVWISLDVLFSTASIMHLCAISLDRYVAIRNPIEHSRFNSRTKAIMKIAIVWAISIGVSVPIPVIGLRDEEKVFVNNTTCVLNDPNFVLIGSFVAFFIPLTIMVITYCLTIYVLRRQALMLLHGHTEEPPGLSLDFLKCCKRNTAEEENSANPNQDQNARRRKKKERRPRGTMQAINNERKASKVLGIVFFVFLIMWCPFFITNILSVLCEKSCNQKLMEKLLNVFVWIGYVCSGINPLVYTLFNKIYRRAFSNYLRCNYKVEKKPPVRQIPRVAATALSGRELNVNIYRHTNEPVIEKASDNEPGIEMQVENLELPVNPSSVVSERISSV

[5] = biological target: Voltage-gated inwardly rectifying potassium channel KCNH2 (Homo sapiens, UniProt Q12809); assay: Inhibition of hERG potassium channel expressed in CHO cells by whole cell patch clamp method; format: toxicity, cell-based
Chain of Voltage-gated inwardly rectifying potassium channel KCNH2 (Q12809 whole entry): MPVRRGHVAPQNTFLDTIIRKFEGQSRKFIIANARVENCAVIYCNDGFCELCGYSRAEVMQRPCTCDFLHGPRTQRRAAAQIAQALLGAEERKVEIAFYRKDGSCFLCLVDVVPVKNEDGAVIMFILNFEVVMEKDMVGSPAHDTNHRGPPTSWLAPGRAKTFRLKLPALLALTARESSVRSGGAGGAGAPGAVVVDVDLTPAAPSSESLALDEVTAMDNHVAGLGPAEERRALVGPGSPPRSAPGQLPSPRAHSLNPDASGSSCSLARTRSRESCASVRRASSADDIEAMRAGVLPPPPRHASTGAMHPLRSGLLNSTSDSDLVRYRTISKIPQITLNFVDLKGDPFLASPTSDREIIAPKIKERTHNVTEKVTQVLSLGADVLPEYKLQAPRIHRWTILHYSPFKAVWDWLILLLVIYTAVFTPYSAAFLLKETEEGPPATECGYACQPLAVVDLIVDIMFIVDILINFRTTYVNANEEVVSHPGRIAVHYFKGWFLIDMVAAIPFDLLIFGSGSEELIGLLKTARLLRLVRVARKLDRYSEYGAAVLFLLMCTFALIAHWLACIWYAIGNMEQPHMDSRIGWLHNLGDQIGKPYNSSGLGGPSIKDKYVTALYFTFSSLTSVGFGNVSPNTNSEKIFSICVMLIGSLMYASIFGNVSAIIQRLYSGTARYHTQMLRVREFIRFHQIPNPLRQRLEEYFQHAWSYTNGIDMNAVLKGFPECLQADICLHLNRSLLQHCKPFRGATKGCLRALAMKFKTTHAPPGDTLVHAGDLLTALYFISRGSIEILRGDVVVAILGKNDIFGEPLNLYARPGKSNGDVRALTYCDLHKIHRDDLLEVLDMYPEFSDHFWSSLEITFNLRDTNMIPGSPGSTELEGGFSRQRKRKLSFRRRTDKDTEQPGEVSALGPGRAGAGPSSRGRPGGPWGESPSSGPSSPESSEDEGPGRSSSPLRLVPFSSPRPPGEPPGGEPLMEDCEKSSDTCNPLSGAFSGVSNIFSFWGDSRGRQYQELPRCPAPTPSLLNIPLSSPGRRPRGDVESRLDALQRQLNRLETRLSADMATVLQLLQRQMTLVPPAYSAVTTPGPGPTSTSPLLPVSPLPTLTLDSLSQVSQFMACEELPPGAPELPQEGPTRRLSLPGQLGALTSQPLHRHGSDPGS

[6] = biological target: T4, 5-hydroxytryptamine receptor 2C (Homo sapiens) (UniProt P28335); assay: Efficacy against human recombinant 5HT2C receptor expressed in CHO cells at 1 uM in relative to 10 uM 5HT by FLIPR; format: functional, cell-based
T4 sequence (whole entry): T3 sequence (P28335 whole entry)

Phospholipidosis [7] = assay: In vitro phospholipidosis in fibroblasts at 7.5uM; format: ADME, cell-based; conditions: fibroblast
[8] = biological target: Serotonin 3 (5-HT3) receptor; assay: Binding affinity to 5HT3 receptor; format: protein-complex assay, Homo sapiens
[9] = biological target: 5-hydroxytryptamine receptor 1A (Homo sapiens, UniProt P08908); assay: Binding affinity to 5HT1A receptor
[10] = biological target: Adrenergic receptor alpha-1 (Homo sapiens, UniProt P35348+P25100+P35368); assay: Binding affinity to alpha-1 adrenergic receptor; format: protein assay
[11] = biological target: Sodium-dependent noradrenaline transporter (Homo sapiens, UniProt P23975); assay: Binding affinity to NA transporter
Mu-type opioid receptor = Mu-type opioid receptor (Homo sapiens, UniProt P35372); assay: Binding affinity to mu type opioid receptor
[12] = biological target: 5-hydroxytryptamine receptor 1D (Homo sapiens, UniProt P28221); assay: Binding affinity to 5HT1D receptor
[13] = biological target: Beta-1 adrenergic receptor (Homo sapiens, UniProt P08588); assay: Binding affinity to beta-1 adrenergic receptor
Chain of Beta-1 adrenergic receptor (P08588 whole entry): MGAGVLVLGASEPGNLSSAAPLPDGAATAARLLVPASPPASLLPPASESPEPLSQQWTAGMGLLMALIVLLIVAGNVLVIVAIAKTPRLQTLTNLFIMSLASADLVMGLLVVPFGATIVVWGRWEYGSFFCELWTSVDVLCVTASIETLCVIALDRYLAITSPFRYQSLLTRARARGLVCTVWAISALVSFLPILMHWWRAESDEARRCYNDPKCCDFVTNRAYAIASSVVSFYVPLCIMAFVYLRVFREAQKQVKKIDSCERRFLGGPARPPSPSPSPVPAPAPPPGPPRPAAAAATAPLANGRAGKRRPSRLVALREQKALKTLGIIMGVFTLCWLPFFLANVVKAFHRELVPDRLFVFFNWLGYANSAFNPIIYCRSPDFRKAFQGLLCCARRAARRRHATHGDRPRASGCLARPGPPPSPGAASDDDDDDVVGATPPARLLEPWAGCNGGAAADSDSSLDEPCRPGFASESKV

[14] = biological target: Sodium-dependent serotonin transporter (Homo sapiens, UniProt P31645); assay: Binding affinity to 5HT transporter
Chain of Sodium-dependent serotonin transporter (P31645 whole entry): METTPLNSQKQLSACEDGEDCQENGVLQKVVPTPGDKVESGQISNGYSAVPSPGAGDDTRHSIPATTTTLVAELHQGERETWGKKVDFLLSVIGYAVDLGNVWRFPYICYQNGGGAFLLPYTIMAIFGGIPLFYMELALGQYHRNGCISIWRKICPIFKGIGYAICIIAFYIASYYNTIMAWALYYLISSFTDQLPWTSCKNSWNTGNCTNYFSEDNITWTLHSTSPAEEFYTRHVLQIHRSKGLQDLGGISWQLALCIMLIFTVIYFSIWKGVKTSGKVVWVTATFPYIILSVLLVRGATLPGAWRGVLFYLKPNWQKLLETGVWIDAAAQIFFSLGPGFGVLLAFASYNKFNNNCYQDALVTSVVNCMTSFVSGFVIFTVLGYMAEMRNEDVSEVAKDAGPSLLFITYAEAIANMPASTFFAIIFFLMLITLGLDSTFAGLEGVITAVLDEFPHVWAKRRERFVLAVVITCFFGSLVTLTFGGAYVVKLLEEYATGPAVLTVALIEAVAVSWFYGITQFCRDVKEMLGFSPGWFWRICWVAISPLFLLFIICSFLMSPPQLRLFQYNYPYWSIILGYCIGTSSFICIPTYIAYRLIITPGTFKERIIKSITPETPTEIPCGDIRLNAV

D(4) dopamine receptor = D(4) dopamine receptor (Homo sapiens, UniProt P21917); assay: Binding affinity to D4 receptor
[15] = biological target: T1, 5-hydroxytryptamine receptor 2A
Description: Binding affinity to human recombinant 5HT2A receptor

Rattus norvegicus = assay: Reduction of food intake in po dosed Hooded Lister rat; format: functional; conditions: read-out: MED
[16] = biological target: T3, 5-hydroxytryptamine receptor 2C; assay: Efficacy against human recombinant 5HT2C receptor induced intracellular calcium mobilization in CHO cells by FLIPR
[17] = biological target: 5-hydroxytryptamine receptor 5A (Homo sapiens, UniProt P47898); assay: Binding affinity to 5HT5A receptor
Chain of 5-hydroxytryptamine receptor 5A (P47898 whole entry): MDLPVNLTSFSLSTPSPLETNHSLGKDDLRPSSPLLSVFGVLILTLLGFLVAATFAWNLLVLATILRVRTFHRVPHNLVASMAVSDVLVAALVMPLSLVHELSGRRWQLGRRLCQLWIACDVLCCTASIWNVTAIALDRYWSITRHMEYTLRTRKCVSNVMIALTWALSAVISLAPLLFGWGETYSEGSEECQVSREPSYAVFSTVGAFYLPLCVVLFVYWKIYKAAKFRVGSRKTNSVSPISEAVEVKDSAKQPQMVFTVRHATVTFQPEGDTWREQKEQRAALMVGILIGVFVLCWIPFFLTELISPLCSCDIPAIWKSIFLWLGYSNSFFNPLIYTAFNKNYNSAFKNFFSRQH

[18] = biological target: 5-hydroxytryptamine receptor 7 (Homo sapiens, UniProt P34969); assay: Binding affinity to 5HT7 receptor
Chain of 5-hydroxytryptamine receptor 7 (P34969 whole entry): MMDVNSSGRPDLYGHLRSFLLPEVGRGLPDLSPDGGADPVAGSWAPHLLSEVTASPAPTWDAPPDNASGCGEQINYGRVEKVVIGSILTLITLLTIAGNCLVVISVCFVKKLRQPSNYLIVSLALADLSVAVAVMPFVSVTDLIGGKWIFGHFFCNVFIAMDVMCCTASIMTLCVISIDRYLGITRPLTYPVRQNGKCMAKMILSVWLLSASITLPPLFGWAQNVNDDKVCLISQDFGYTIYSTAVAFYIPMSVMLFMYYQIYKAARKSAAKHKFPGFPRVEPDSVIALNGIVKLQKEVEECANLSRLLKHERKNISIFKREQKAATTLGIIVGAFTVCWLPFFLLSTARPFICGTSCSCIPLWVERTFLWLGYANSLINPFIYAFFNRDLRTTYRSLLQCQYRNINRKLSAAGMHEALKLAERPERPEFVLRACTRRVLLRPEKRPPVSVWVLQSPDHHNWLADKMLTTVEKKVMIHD

[19] = Binding affinity to sodium channel
[20] = biological target: T2, 5-hydroxytryptamine receptor 2B; assay: Efficacy against human recombinant 5HT2B receptor induced intracellular calcium mobilization in CHO cells by FLIPR; format: functional, cell-based
[21] = biological target: Sodium-dependent dopamine transporter (Homo sapiens, UniProt Q01959); assay: Binding affinity to DA transporter
Chain of Sodium-dependent dopamine transporter (Q01959 whole entry): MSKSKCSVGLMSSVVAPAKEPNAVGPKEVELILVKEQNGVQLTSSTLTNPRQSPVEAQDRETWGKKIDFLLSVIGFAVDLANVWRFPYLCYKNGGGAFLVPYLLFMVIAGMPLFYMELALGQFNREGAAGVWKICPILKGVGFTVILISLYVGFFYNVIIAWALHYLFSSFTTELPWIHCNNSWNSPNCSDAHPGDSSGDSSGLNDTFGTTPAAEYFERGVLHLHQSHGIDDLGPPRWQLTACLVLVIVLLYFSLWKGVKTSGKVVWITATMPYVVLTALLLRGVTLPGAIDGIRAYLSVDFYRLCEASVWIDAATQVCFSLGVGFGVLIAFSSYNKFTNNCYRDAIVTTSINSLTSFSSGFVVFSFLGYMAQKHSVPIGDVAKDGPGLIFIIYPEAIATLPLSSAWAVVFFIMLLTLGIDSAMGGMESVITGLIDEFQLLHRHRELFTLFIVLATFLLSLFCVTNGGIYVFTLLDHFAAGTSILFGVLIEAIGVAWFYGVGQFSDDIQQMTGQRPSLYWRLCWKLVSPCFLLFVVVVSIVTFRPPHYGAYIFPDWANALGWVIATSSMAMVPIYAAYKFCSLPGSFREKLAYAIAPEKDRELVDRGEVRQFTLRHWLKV

[22] = biological target: 5-hydroxytryptamine receptor 1B (Homo sapiens, UniProt P28222); assay: Binding affinity to 5HT1B receptor
[23] = biological target: 5-hydroxytryptamine receptor 6 (Homo sapiens, UniProt P50406); assay: Binding affinity to 5HT6 receptor
hERG (KCNH2) = hERG (KCNH2) (Homo sapiens, UniProt Q12809); assay: Inhibition of hERG potassium channel expressed in CHO cells by whole cell patch clamp method at 10 uM; format: toxicity, cell-based; conditions: CHO cells expressing hERG

T1 sequence (P28223 whole entry): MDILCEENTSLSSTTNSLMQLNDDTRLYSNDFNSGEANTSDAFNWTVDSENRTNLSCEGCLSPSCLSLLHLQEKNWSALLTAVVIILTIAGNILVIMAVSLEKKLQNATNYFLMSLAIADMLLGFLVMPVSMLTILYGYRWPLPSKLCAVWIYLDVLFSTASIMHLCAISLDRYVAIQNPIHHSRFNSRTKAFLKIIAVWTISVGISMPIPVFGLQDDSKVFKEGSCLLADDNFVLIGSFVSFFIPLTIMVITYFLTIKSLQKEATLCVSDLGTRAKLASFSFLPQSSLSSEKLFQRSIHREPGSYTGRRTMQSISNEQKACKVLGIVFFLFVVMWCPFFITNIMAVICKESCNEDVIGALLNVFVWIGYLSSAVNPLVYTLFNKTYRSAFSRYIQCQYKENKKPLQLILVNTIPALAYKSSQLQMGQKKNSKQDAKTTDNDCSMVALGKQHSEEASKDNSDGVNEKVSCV

Cc1ccc2c(n1)N1[C@@H](CNC[C@H]1C)C2
Ki [1]: 136 nM
Ki [2]: 77 nM
Phospholipidosis (Phospholipidosis [3]): Not Active
Ki [4]: 2.7 nM
IC50 [5]: 21000 nM
Efficacy [6]: 101%

CCO[C@H](C)c1ccc2c(n1)N1[C@@H](CNC[C@H]1C)C2
Ki [1]: 2380 nM
Ki [2]: 1310 nM
Ki [4]: 93 nM
Efficacy [6]: 86%

COCc1ccc2c(n1)N1[C@@H](CNC[C@H]1C)C2
Ki [1]: 565 nM
Ki [2]: 379 nM
Ki [4]: 16 nM
Efficacy [6]: 97%

CC(=O)Nc1ccc2c(n1)N1[C@@H](CNC[C@H]1C)C2
Efficacy [6]: 0%

C[C@@H]1CNC[C@H]2Cc3ccc(C#N)nc3N21
Ki [1]: 2550 nM
Ki [2]: 1820 nM
Ki [4]: 60 nM
Efficacy [6]: 85%

Cc1c(Cl)ccc2c1N1[C@H](CNC[C@H]1C)C2
Phospholipidosis (Phospholipidosis [7]): 7.5 µM
Ki [1]: 19 nM
Ki [2]: 40 nM

C[C@@H]1CNC[C@H]2Cc3ccc(Cl)nc3N21
Ki [1]: 42 nM
Ki [2]: 48 nM
Ki [4]: 1.6 nM
IC50 [5]: 40000 nM
Efficacy [6]: 98%

C[C@H](O)c1ccc2c(n1)N1[C@@H](CNC[C@H]1C)C2
Ki [1]: 392 nM
Ki [2]: 835 nM
Ki [4]: 39 nM
Efficacy [6]: 101%

C[C@@H]1CNC[C@@H]2Cc3ccc(Cl)nc3N21
Ki [1]: 54 nM
Ki [2]: 217 nM
Ki [4]: 52 nM
Efficacy [6]: 81%

C[C@@H]1CNC[C@H]2Cc3ccc(C(F)(F)F)nc3N21
Ki [1]: 43 nM
Ki [2]: 68 nM
Ki [4]: 14 nM
Efficacy [6]: 96%

C[C@@H]1CNC[C@H]2Cc3ccc(COCC4CC4)nc3N21
Ki [8]: > 1000 nM
Ki [1]: 74 nM
Ki [9]: > 720 nM
Ki [10]: > 1000 nM
Ki [2]: 174 nM
Ki [11]: > 1000 nM
Ki (Mu-type opioid receptor): > 1000 nM
Ki [12]: > 360 nM
Phospholipidosis (Phospholipidosis [3]): Not Active
Ki [13]: > 1000 nM
Ki [14]: > 1000 nM
Ki (D(4) dopamine receptor): > 720 nM
Ki [4]: 3.6 nM
pKb [15]: 6.7
minimal effective dose (Rattus norvegicus): 10 mg/kg
EC50 [16]: 15 nM
Ki [17]: > 720 nM
IC50 [5]: > 30000 nM
Ki [18]: > 1000 nM
Ki [19]: > 1000 nM
EC50 [20]: 23 nM
Emax [20]: 31%
Ki [21]: > 1000 nM
Efficacy [6]: 87%
Ki [22]: > 720 nM
Ki [23]: > 720 nM

C[C@@H]1CNC[C@@H]2Cc3ccc(Br)nc3N21
Ki [1]: 58 nM
Ki [2]: 166 nM
Ki [4]: 21 nM
Efficacy [6]: 87%

Clc1ccc2c(n1)N1CCNCC1C2 (centres undefined)
Ki [1]: 217 nM
Ki [2]: 221 nM
Ki [4]: 131 nM

C[C@@H]1CNC[C@H]2Cc3ccc(Br)nc3N21
Ki [1]: 53 nM
Ki [2]: 81 nM
Ki [4]: 0.8 nM
Efficacy [6]: 97%

C[C@@H]1CNC[C@H]2Cc3ccc(CO)nc3N21
Ki [1]: 942 nM
Ki [2]: 1140 nM
Ki [4]: 54 nM
Efficacy [6]: 88%

CCO[C@@H](C)c1ccc2c(n1)N1[C@@H](CNC[C@H]1C)C2
inhibition at 10 µM (hERG (KCNH2)): 20%
Ki [1]: 65 nM
Ki [2]: 295 nM
Ki [4]: 2.3 nM
Efficacy [6]: 83%

COc1ccc2c(n1)N1[C@@H](CNC[C@H]1C)C2
Ki [1]: 511 nM
Ki [2]: 440 nM
Ki [4]: 104 nM
Efficacy [6]: 77%
